system: Calu-3; assay: cells; assay type: functional, cell-based; settings: Homo sapiens;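 note: growth inhibition of human Calu-3 cells, determined with a cell viability assay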
Description: SANGER: Inhibition of human Calu-3 cell growth in a cell viability assay.

Question: How did the IC50 turn out when CC1=C(/C=C/C(C)=C/C=C/C(C)=C/C(=O)O)C(C)(C)CCC1 [TRETINOIN] was run?
Answer: The IC50 was over 10 µM.

system: EFO-27; assay: cells; assay type: functional, cell-based; settings: Homo sapiens;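 note: growth inhibition of EFO-27 cells, read out with a cell viability assay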
Description: SANGER: Inhibition of human EFO-27 cell growth in a cell viability assay.

Question: CC1=C(/C=C/C(C)=C/C=C/C(C)=C/C(=O)O)C(C)(C)CCC1 [TRETINOIN] was tested. Which IC50 did it give?
Answer: The IC50 was over 10 µM.

system: FaDu; assay: cells; assay type: functional, cell-based; settings: Homo sapiens;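 note: cell viability readout of growth inhibition in FaDu cells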
Description: SANGER: Inhibition of human FADU cell growth in a cell viability assay.

Question: Which IC50 does the source give for CC1=C(/C=C/C(C)=C/C=C/C(C)=C/C(=O)O)C(C)(C)CCC1 [TRETINOIN] here?
Answer: Its IC50 is over 10 µM.

system: GAMG; assay: cells; assay type: functional, cell-based; settings: Homo sapiens;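 note: cell growth inhibition measured by a viability assay in the GAMG human cell line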
Description: SANGER: Inhibition of human GAMG cell growth in a cell viability assay.

Question: CC1=C(/C=C/C(C)=C/C=C/C(C)=C/C(=O)O)C(C)(C)CCC1 [TRETINOIN] was tested. Which IC50 did it give?
Answer: Its IC50 is over 10 µM.

system: HCC1395; assay: cells; assay type: functional, cell-based; settings: Homo sapiens;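 note: growth inhibition of HCC1395 cells, read out by a cell viability assay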
Description: SANGER: Inhibition of human HCC1395 cell growth in a cell viability assay.

Question: For CC1=C(/C=C/C(C)=C/C=C/C(C)=C/C(=O)O)C(C)(C)CCC1 [TRETINOIN], which IC50 is on record?
Answer: Its IC50 is over 10 µM.

system: HCC1954; assay: cells; assay type: functional, cell-based; settings: Homo sapiens;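 note: growth inhibition of human HCC1954 cells, read out with a cell viability assay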
Description: SANGER: Inhibition of human HCC1954 cell growth in a cell viability assay.

Question: CC1=C(/C=C/C(C)=C/C=C/C(C)=C/C(=O)O)C(C)(C)CCC1 [TRETINOIN] was tested. Which IC50 did it give?
Answer: The IC50 was over 10 µM.

system: HCT-15; assay: cells; assay type: functional, cell-based; settings: Homo sapiens;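 note: cell viability readout, IC50 reflecting suppression of HCT-15 cell growth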
Description: SANGER: Inhibition of human HCT-15 cell growth in a cell viability assay.

Question: CC1=C(/C=C/C(C)=C/C=C/C(C)=C/C(=O)O)C(C)(C)CCC1 [TRETINOIN] was tested. Which IC50 did it give?
Answer: Its IC50 is over 10 µM.

system: HGC-27; assay: cells; assay type: functional, cell-based; settings: Homo sapiens;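 note: growth inhibition of human HGC-27 cells, read out in a cell viability assay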
Description: SANGER: Inhibition of human HGC-27 cell growth in a cell viability assay.

Question: CC1=C(/C=C/C(C)=C/C=C/C(C)=C/C(=O)O)C(C)(C)CCC1 [TRETINOIN] was tested. Which IC50 did it give?
Answer: Its IC50 is over 10 µM.

system: HLE; assay: cells; assay type: functional, cell-based; settings: Homo sapiens;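 note: growth inhibition of human HLE cells, read out by a cell viability assay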
Description: SANGER: Inhibition of human HLE cell growth in a cell viability assay.

Question: With CC1=C(/C=C/C(C)=C/C=C/C(C)=C/C(=O)O)C(C)(C)CCC1 [TRETINOIN] as the compound, how does the IC50 read?
Answer: The IC50 was over 10 µM.

system: HN; assay: cells; assay type: functional, cell-based; settings: Homo sapiens
Description: SANGER: Inhibition of human HN cell growth in a cell viability assay.

Question: Which IC50 does the source give for CC1=C(/C=C/C(C)=C/C=C/C(C)=C/C(=O)O)C(C)(C)CCC1 [TRETINOIN] here?
Answer: The IC50 was over 10 µM.

system: HTC-C3; assay: cells; assay type: functional, cell-based; settings: Homo sapiens;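 note: inhibition of cell growth, read out with a cell viability assay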
Description: SANGER: Inhibition of human HTC-C3 cell growth in a cell viability assay.

Question: Which IC50 does the source give for CC1=C(/C=C/C(C)=C/C=C/C(C)=C/C(=O)O)C(C)(C)CCC1 [TRETINOIN] here?
Answer: The IC50 was over 10 µM.

system: HuCCT-1; assay: cells; assay type: functional, cell-based, HuCCT1; settings: Homo sapiens;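 note: growth inhibition of HuCCT-1 cells, read out by a cell viability assay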
Description: SANGER: Inhibition of human HuCCT1 cell growth in a cell viability assay.

Question: How did the IC50 turn out when CC1=C(/C=C/C(C)=C/C=C/C(C)=C/C(=O)O)C(C)(C)CCC1 [TRETINOIN] was run?
Answer: The IC50 was over 10 µM.

system: HuP-T3; assay: cells; assay type: functional, cell-based; settings: Homo sapiens;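 note: HuP-T3 cell growth inhibition, read out with a cell viability assay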
Description: SANGER: Inhibition of human HuP-T3 cell growth in a cell viability assay.

Question: How did the IC50 turn out when CC1=C(/C=C/C(C)=C/C=C/C(C)=C/C(=O)O)C(C)(C)CCC1 [TRETINOIN] was run?
Answer: Its IC50 is over 10 µM.

system: KYSE-270; assay: cells; assay type: functional, cell-based; settings: Homo sapiens;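 note: cell growth inhibition measured with a viability assay in the human KYSE-270 line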
Description: SANGER: Inhibition of human KYSE-270 cell growth in a cell viability assay.

Question: CC1=C(/C=C/C(C)=C/C=C/C(C)=C/C(=O)O)C(C)(C)CCC1 [TRETINOIN] was tested. Which IC50 did it give?
Answer: The IC50 was over 10 µM.

system: LCLC-103H cell line; assay: cells; assay type: functional, cell-based; settings: Homo sapiens
Description: SANGER: Inhibition of human LCLC-103H cell growth in a cell viability assay.

Question: How did the IC50 turn out when CC1=C(/C=C/C(C)=C/C=C/C(C)=C/C(=O)O)C(C)(C)CCC1 [TRETINOIN] was run?
Answer: Its IC50 is over 10 µM.

system: MC-IXC; assay: cells; assay type: functional, cell-based; settings: Homo sapiens;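 note: growth inhibition of MC-IXC cells, read out with a cell viability assay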
Description: SANGER: Inhibition of human MC-IXC cell growth in a cell viability assay.

Question: CC1=C(/C=C/C(C)=C/C=C/C(C)=C/C(=O)O)C(C)(C)CCC1 [TRETINOIN] was tested. Which IC50 did it give?
Answer: Its IC50 is 0.154 µM.

system: MDA-MB-157; assay: cells; assay type: functional, cell-based; settings: Homo sapiens
Description: SANGER: Inhibition of human MDA-MB-157 cell growth in a cell viability assay.

Question: Which IC50 does the source give for CC1=C(/C=C/C(C)=C/C=C/C(C)=C/C(=O)O)C(C)(C)CCC1 [TRETINOIN] here?
Answer: The IC50 was over 10 µM.

system: MEL-HO; assay: cells; assay type: functional, cell-based; settings: Homo sapiens
Description: SANGER: Inhibition of human MEL-HO cell growth in a cell viability assay.

Question: How did the IC50 turn out when CC1=C(/C=C/C(C)=C/C=C/C(C)=C/C(=O)O)C(C)(C)CCC1 [TRETINOIN] was run?
Answer: Its IC50 is over 10 µM.

system: MKN-1; assay: cells; assay type: functional, cell-based; settings: Homo sapiens;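 note: growth inhibition of human MKN1 cells, read out by a cell viability measurement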
Description: SANGER: Inhibition of human MKN1 cell growth in a cell viability assay.

Question: For CC1=C(/C=C/C(C)=C/C=C/C(C)=C/C(=O)O)C(C)(C)CCC1 [TRETINOIN], which IC50 is on record?
Answer: Its IC50 is over 10 µM.

system: MKN-45; assay: cells; assay type: functional, cell-based; settings: Homo sapiens;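 note: growth inhibition of human MKN-45 cells, measured with a cell viability assay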
Description: SANGER: Inhibition of human MKN45 cell growth in a cell viability assay.

Question: With CC1=C(/C=C/C(C)=C/C=C/C(C)=C/C(=O)O)C(C)(C)CCC1 [TRETINOIN] as the compound, how does the IC50 read?
Answer: Its IC50 is over 10 µM.

system: NCI-H1437; assay: cells; assay type: functional, cell-based; settings: Homo sapiens;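 note: growth inhibition of human NCI-H1437 cells, read out by a cell viability assay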
Description: SANGER: Inhibition of human NCI-H1437 cell growth in a cell viability assay.

Question: For CC1=C(/C=C/C(C)=C/C=C/C(C)=C/C(=O)O)C(C)(C)CCC1 [TRETINOIN], which IC50 is on record?
Answer: Its IC50 is over 10 µM.

system: NCI-H1703; assay: cells; assay type: functional, cell-based; settings: Homo sapiens;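 note: growth inhibition of NCI-H1703 cells, read out via a cell viability assay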
Description: SANGER: Inhibition of human NCI-H1703 cell growth in a cell viability assay.

Question: With CC1=C(/C=C/C(C)=C/C=C/C(C)=C/C(=O)O)C(C)(C)CCC1 [TRETINOIN] as the compound, how does the IC50 read?
Answer: The IC50 was over 10 µM.

system: NCI-H2405; assay: cells; assay type: functional, cell-based; settings: Homo sapiens;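 note: growth inhibition of the human cell line, read out with a cell viability assay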
Description: SANGER: Inhibition of human NCI-H2405 cell growth in a cell viability assay.

Question: For CC1=C(/C=C/C(C)=C/C=C/C(C)=C/C(=O)O)C(C)(C)CCC1 [TRETINOIN], which IC50 is on record?
Answer: Its IC50 is over 10 µM.

system: NCI-H510A; assay: cells; assay type: functional, cell-based, Homo sapiens; settings: Homo sapiens, NCI-H510A;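 note: growth inhibition of NCI-H510A cells, read out with a cell viability assay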
Description: SANGER: Inhibition of human NCI-H510A cell growth in a cell viability assay.

Question: For CC1=C(/C=C/C(C)=C/C=C/C(C)=C/C(=O)O)C(C)(C)CCC1 [TRETINOIN], which IC50 is on record?
Answer: The IC50 was over 10 µM.

system: NCI-H630; assay: cells; assay type: functional, cell-based; settings: Homo sapiens;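 note: growth inhibition of NCI-H630 cells, read out with a cell viability assay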
Description: SANGER: Inhibition of human NCI-H630 cell growth in a cell viability assay.

Question: Which IC50 does the source give for CC1=C(/C=C/C(C)=C/C=C/C(C)=C/C(=O)O)C(C)(C)CCC1 [TRETINOIN] here?
Answer: Its IC50 is over 10 µM.

system: NCI-H810; assay: cells; assay type: functional, cell-based; settings: Homo sapiens;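 note: IC50 reflects inhibition of cancer cell line growth, read out with a cell viability assay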
Description: SANGER: Inhibition of human NCI-H810 cell growth in a cell viability assay.

Question: CC1=C(/C=C/C(C)=C/C=C/C(C)=C/C(=O)O)C(C)(C)CCC1 [TRETINOIN] was tested. Which IC50 did it give?
Answer: The IC50 was over 10 µM.

system: NY; assay: cells; assay type: functional, cell-based; settings: Homo sapiens
Description: SANGER: Inhibition of human NY cell growth in a cell viability assay.

Question: For CC1=C(/C=C/C(C)=C/C=C/C(C)=C/C(=O)O)C(C)(C)CCC1 [TRETINOIN], which IC50 is on record?
Answer: Its IC50 is over 10 µM.

system: RD; assay: cells; assay type: functional, cell-based; settings: Homo sapiens
Description: SANGER: Inhibition of human RD cell growth in a cell viability assay.

Question: How did the IC50 turn out when CC1=C(/C=C/C(C)=C/C=C/C(C)=C/C(=O)O)C(C)(C)CCC1 [TRETINOIN] was run?
Answer: The IC50 was over 10 µM.

system: RMG-I; assay: cells; assay type: functional, cell-based; settings: Homo sapiens;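 note: growth inhibition of human RMG-I cells, read out with a cell viability assay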
Description: SANGER: Inhibition of human RMG-I cell growth in a cell viability assay.

Question: For CC1=C(/C=C/C(C)=C/C=C/C(C)=C/C(=O)O)C(C)(C)CCC1 [TRETINOIN], which IC50 is on record?
Answer: The IC50 was over 10 µM.

system: SNU-449; assay: cells; assay type: functional, cell-based; settings: Homo sapiens
Description: SANGER: Inhibition of human SNU-449 cell growth in a cell viability assay.

Question: With CC1=C(/C=C/C(C)=C/C=C/C(C)=C/C(=O)O)C(C)(C)CCC1 [TRETINOIN] as the compound, how does the IC50 read?
Answer: The IC50 was over 10 µM.

system: SW1463; assay: cells; assay type: functional, cell-based; settings: Homo sapiens;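 note: growth inhibition of SW1463 cells, determined with a cell viability assay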
Description: SANGER: Inhibition of human SW1463 cell growth in a cell viability assay.

Question: How did the IC50 turn out when CC1=C(/C=C/C(C)=C/C=C/C(C)=C/C(=O)O)C(C)(C)CCC1 [TRETINOIN] was run?
Answer: The IC50 was over 10 µM.

system: SW1710; assay: cells; assay type: functional, cell-based; settings: Homo sapiens;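 note: growth inhibition of SW1710 cells, determined with a cell viability assay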
Description: SANGER: Inhibition of human SW1710 cell growth in a cell viability assay.

Question: With CC1=C(/C=C/C(C)=C/C=C/C(C)=C/C(=O)O)C(C)(C)CCC1 [TRETINOIN] as the compound, how does the IC50 read?
Answer: The IC50 was over 10 µM.

system: SW1990; assay: cells; assay type: functional, cell-based; settings: Homo sapiens;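 note: cell growth inhibition determined with a viability assay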
Description: SANGER: Inhibition of human SW1990 cell growth in a cell viability assay.

Question: With CC1=C(/C=C/C(C)=C/C=C/C(C)=C/C(=O)O)C(C)(C)CCC1 [TRETINOIN] as the compound, how does the IC50 read?
Answer: The IC50 was over 10 µM.

system: SW626; assay: cells; assay type: functional, cell-based; settings: Homo sapiens;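 note: growth inhibition of SW626 cells, measured with a cell viability assay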
Description: SANGER: Inhibition of human SW626 cell growth in a cell viability assay.

Question: CC1=C(/C=C/C(C)=C/C=C/C(C)=C/C(=O)O)C(C)(C)CCC1 [TRETINOIN] was tested. Which IC50 did it give?
Answer: Its IC50 is over 10 µM.

system: SW780; assay: cells; assay type: functional, cell-based; settings: Homo sapiens;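 note: growth inhibition of the cells, read out with a cell viability assay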
Description: SANGER: Inhibition of human SW780 cell growth in a cell viability assay.

Question: How did the IC50 turn out when CC1=C(/C=C/C(C)=C/C=C/C(C)=C/C(=O)O)C(C)(C)CCC1 [TRETINOIN] was run?
Answer: Its IC50 is over 10 µM.

system: T-24; assay: cells; assay type: functional, cell-based; settings: Homo sapiens;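 note: growth inhibition of T-24 cells, read out with a cell viability assay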
Description: SANGER: Inhibition of human T-24 cell growth in a cell viability assay.

Question: For CC1=C(/C=C/C(C)=C/C=C/C(C)=C/C(=O)O)C(C)(C)CCC1 [TRETINOIN], which IC50 is on record?
Answer: Its IC50 is over 10 µM.

system: A204; assay: cells; assay type: functional, cell-based; settings: Homo sapiens;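 note: growth inhibition of human A204 cells, read out with a cell viability assay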
Description: SANGER: Inhibition of human A204 cell growth in a cell viability assay.

Question: How did the IC50 turn out when CC1=C(/C=C/C(C)=C/C=C/C(C)=C/C(=O)O)C(C)(C)CCC1 [TRETINOIN] was run?
Answer: The IC50 was over 10 µM.

system: A-427; assay: cells; assay type: functional, cell-based; settings: Homo sapiens;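 note: growth inhibition of human A-427 cells, read out by a cell viability assay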
Description: SANGER: Inhibition of human A427 cell growth in a cell viability assay.

Question: With CC1=C(/C=C/C(C)=C/C=C/C(C)=C/C(=O)O)C(C)(C)CCC1 [TRETINOIN] as the compound, how does the IC50 read?
Answer: The IC50 was over 10 µM.

system: C3A; assay: cells; assay type: functional, cell-based; settings: Homo sapiens;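 note: growth inhibition of C3A human cells, quantified with a cell viability readout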
Description: SANGER: Inhibition of human C3A cell growth in a cell viability assay.

Question: For CC1=C(/C=C/C(C)=C/C=C/C(C)=C/C(=O)O)C(C)(C)CCC1 [TRETINOIN], which IC50 is on record?
Answer: Its IC50 is over 10 µM.

system: CAL-39; assay: cells; assay type: functional, cell-based; settings: Homo sapiens;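 note: cell viability assay measuring growth inhibition of CAL-39 cells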
Description: SANGER: Inhibition of human CAL-39 cell growth in a cell viability assay.

Question: With CC1=C(/C=C/C(C)=C/C=C/C(C)=C/C(=O)O)C(C)(C)CCC1 [TRETINOIN] as the compound, how does the IC50 read?
Answer: Its IC50 is over 10 µM.

system: UO-31; assay: cells; assay type: functional, cell-based; settings: Homo sapiens;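 note: cell viability assay measuring inhibition of cell growth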
Description: SANGER: Inhibition of human U031 cell growth in a cell viability assay.

Question: CC1=C(/C=C/C(C)=C/C=C/C(C)=C/C(=O)O)C(C)(C)CCC1 [TRETINOIN] was tested. Which IC50 did it give?
Answer: The IC50 was over 10 µM.

system: U-251; assay: cells; assay type: functional, cell-based; settings: Homo sapiens;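 note: growth inhibition of human U-251 cells, read out through a cell viability assay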
Description: SANGER: Inhibition of human U251 cell growth in a cell viability assay.

Question: Which IC50 does the source give for CC1=C(/C=C/C(C)=C/C=C/C(C)=C/C(=O)O)C(C)(C)CCC1 [TRETINOIN] here?
Answer: Its IC50 is over 10 µM.

system: CAMA-1; assay: cells; assay type: functional, cell-based; settings: Homo sapiens;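 note: growth inhibition of CAMA-1 cells, read out with a cell viability assay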
Description: SANGER: Inhibition of human CAMA-1 cell growth in a cell viability assay.

Question: Which IC50 does the source give for CC1=C(/C=C/C(C)=C/C=C/C(C)=C/C(=O)O)C(C)(C)CCC1 [TRETINOIN] here?
Answer: The IC50 was over 10 µM.

system: CAPAN-1; assay: cells; assay type: functional, cell-based; settings: Homo sapiens;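 note: growth suppression of CAPAN-1 cells, read out by a cell viability assay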
Description: SANGER: Inhibition of human CAPAN-1 cell growth in a cell viability assay.

Question: With CC1=C(/C=C/C(C)=C/C=C/C(C)=C/C(=O)O)C(C)(C)CCC1 [TRETINOIN] as the compound, how does the IC50 read?
Answer: Its IC50 is over 10 µM.
